Measurements as given in patent publication US20050148560A1, “Prevention and treatment of hypertensive heart diseases by the selective estrogens 8beta-vinyl-estra-1,3,5(10)-trien-3,17beta-diol and 17beta-fluor-9alpha-vinyl-estra-1,3,5(10)-trien-3,16alpha-diol” (priority 2003, published 2005).
Entries after “also recorded” stand apart in the source; their conditions may differ.

How the values were obtained:
human ERβ = biological target: T1, human ERβ (Homo sapiens, UniProt Q92731); experiment: Binding to human estrogen receptors expressed by the Baculovirus/SF-9-expression system; details: human receptors expressed by Baculovirus/SF-9-expression system
T1 construct: host or cells: Baculovirus/SF-9 expression system
T1 sequence (Q92731 whole entry): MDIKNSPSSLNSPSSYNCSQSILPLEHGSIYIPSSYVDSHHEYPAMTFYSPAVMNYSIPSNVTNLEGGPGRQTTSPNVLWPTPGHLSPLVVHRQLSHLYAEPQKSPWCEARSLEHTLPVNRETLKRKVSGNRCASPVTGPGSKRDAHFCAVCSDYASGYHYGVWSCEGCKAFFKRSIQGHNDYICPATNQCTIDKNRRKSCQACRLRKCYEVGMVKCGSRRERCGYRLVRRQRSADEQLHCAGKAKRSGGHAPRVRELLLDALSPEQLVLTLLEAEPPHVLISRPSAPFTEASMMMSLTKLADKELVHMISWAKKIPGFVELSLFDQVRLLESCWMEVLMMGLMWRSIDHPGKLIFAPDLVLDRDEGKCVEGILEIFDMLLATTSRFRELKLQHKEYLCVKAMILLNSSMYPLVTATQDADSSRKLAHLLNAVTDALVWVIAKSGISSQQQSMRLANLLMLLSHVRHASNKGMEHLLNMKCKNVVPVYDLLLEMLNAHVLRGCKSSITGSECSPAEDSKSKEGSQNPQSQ

[1] = system: spontaneously hypertensive rats (SHR); experiment: In vivo hemodynamics in ovariectomized spontaneously hypertensive rats (SHR); design: species or system rat; details: for cardiac output: FIG. 4; for blood pressure / effectiveness in lowering blood pressure relative to estradiol and the ERα agonist: ovx SHR, FIG. 3; for blood pressure: compared to vehicle treated (placebo) animals; for effectiveness in lowering blood pressure relative to estradiol and the ERα agonist: 30 μg/kg/d vs estradiol 2 μg/kg/d and ERα agonist 30 μg/kg/d
Excerpt: The effects of the ERβ-agonists on blood pressure (BP) in ovariectomized SHR, a widely accepted animal model of hypertensive heart disease, were investigated in three independent studies. Estradiol and the steroidal ERα agonist 3,17β-Dihydroxy-19-nor-17α-pregna-1,3,5(10)-triene-21,16α-lactone were used as references. Female spontaneously hypertensive rats (SHR-Nico; 12 weeks old; Charles River Laboratories) were used for the experiment. All animals were kept under standard conditions (eg 12 hr ON/OFF light cycle, commercial diet and water ad libitum). Animals were randomly assigned to different treatment groups as outlined below. All animals were marked individually by ear tag. Female rats (SHR; 12 weeks old) were ovarectomized (ovx) and treated for 4 weeks starting one day after ovx according to the protocol outlined below. All compounds were injected daily using ethanol (EtOH)/peanut oil 4+1 as the vehicle. [table] 12 weeks old female SHR (Charles River™) were ovariectomized or sham-operated. Starting one day after ovariectomy animals were randomly selected for a daily subcutaneous injection of 17β-estradiol (E2, 2 μg/kg body weight/d), the selective ERα agonist 3,17β-Dihydroxy-19-nor-17α-pregna-1,3,5(10)-triene-21,16α-lactone (WO 02/26763) (30 μg/kg body weight/d), the selective ERβ agonist 8β-Vinyl-estra-1,3,5(10)-trien-3,17β-diol (or 17β-Fluor-9α-vinyl-estra-1,3,5(10)-trien-3,16α-diol, respectively 30 μg/kg body weight) or placebo. All animals had free access to standard rat chow and water. E2, 3,17β-Dihydroxy-19-nor-17α-pregna-1,3,5(10)-triene-21,16α-lactone and 8β-Vinyl-estra-1,3,5(10)-trien-3,17β-diol (or 17β-Fluor-9α-vinyl-estra-1,3,5(10)-trien-3,16α-diol) were dissolved in ethanol and injected daily using peanut oil as a carrier substance, placebo animals received ethanol/peanut oil alone. After 4 weeks treatment hemodynamic parameters were measured as described previously (Fraccarollo D, Hu K, Galuppo P, Gaudron P, Ertl G. (1997), Circulation. 1997;96:3963-3973) and animals were euthanized. The following parameters were determined: Systolic, diastolic, mean blood pressure; left ventricular ejection fraction; systolic and diastolic left ventricular pressure as well as the velocity of pressure increase and decrease in the left ventricle; cardiac output, cardiac index, heart rate; systemic vascular resistance. All measurements were performed at rest under isofluran anesthesia. Values are expressed as mean±SEM of parameters from different animals. Statistical analysis was performed by one-way analysis of variance (ANOVA) followed by a post hoc Bonferroni test. P values <0.05 were considered statistically significant.

[2] = Body weight of ovariectomized SHR; format: in vivo, rat; details: daily sc injection for 4 weeks, 30 μg/kg/d (estradiol 2 μg/kg/d), FIG. 2
Excerpt: (§1) The effects of the ERβ-agonists on blood pressure (BP) in ovariectomized SHR, a widely accepted animal model of hypertensive heart disease, were investigated in three independent studies. Estradiol and the steroidal ERα agonist 3,17β-Dihydroxy-19-nor-17α-pregna-1,3,5(10)-triene-21,16α-lactone were used as references. Female spontaneously hypertensive rats (SHR-Nico; 12 weeks old; Charles River Laboratories) were used for the experiment. All animals were kept under standard conditions (eg 12 hr ON/OFF light cycle, commercial diet and water ad libitum). Animals were randomly assigned to different treatment groups as outlined below. All animals were marked individually by ear tag. Female rats (SHR; 12 weeks old) were ovarectomized (ovx) and treated for 4 weeks starting one day after ovx according to the protocol outlined below. All compounds were injected daily using ethanol (EtOH)/peanut oil 4+1 as the vehicle. [table] 12 weeks old female SHR (Charles River™) were ovariectomized or sham-operated. […] After 4 weeks treatment hemodynamic parameters were measured as described previously (Fraccarollo D, Hu K, Galuppo P, Gaudron P, Ertl G. (1997), Circulation. 1997;96:3963-3973) and animals were euthanized.

[3] = system: spontaneously hypertensive rats (SHR); experiment: Cardiac hypertrophy (heart weight) in ovariectomized SHR; format: in vivo, rat; details: ovx SHR, 4 weeks daily sc; 30 μg/kg/d (estradiol 2 μg/kg/d), compared to placebo treated rats; FIG. 6
Excerpt: as §1, with “[table]” for “[table] 12 weeks old female SHR (Charles River™) were ovariectomized or sham-operated.”, “euthanized. Cardiac hypertrophy in all animals was determined by measuring total heart weight and subsequent normalization to tibia length. Values are expressed as mean±SEM of parameters from different animals. […]” for “euthanized.”

[4] = biological target: T2, rat prostate estrogen receptor (ERβ containing cytosol) (Rattus norvegicus, UniProt Q62986); experiment: Estrogen receptor binding, competition with [3H]-estradiol, rat prostate cytosol (compared with rat uterus cytosol); details: rat prostate cytosol (ERβ) vs rat uterus cytosol (ERα)
T2 construct: Receptor containing cytosol was prepared from rat prostate (ERβ containing cytosol); from tissue; host or cells: rat prostate cytosol
T2 sequence (Q62986 whole entry): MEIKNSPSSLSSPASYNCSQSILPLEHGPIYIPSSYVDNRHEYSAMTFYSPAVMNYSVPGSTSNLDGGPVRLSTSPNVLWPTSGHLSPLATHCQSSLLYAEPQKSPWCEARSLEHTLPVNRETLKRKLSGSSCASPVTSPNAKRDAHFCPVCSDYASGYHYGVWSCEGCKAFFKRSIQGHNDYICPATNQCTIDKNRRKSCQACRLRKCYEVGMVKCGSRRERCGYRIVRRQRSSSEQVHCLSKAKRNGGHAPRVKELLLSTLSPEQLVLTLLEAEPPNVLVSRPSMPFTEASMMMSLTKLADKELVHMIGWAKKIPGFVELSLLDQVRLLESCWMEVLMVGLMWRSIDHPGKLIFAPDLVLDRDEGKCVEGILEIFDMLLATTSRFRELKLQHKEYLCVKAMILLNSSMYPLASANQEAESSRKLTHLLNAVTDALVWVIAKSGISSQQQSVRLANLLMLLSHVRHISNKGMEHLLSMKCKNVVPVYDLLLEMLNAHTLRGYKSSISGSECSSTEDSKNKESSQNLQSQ
Protocol: The binding affinity of 8β-Vinyl-estra-1,3,5(10)-trien-3,17β-diol and 17β-Fluor-9α-vinyl-estra-1,3,5(10)-trien-3,16α-diol was determined by competition experiments using [3H]-estradiol as a ligand. Receptor containing cytosol was prepared from rat prostate (ERβ containing cytosol) and rat uterus (ERα containing cytosol).
The preparation of rat uterus cytosol and the binding study were performed as described (Stack, Gorski 1985, Endocrinology 117, 2024-2032) with some modifications as described by Fuhrmann et al. (Fuhrmann U. et al. 1995, Contraception 51: 45-52).
The preparation of rat prostate cytosol and the binding study was performed as described (Testas J. et al., 1981, Endocrinology 109: 1287-1289).

[5] = system: uterus (indicator of classical ERα-mediated estrogen action); experiment: Uterus fresh weight in ovariectomized SHR; format: in vivo, rat; details: ovx SHR, daily sc injection for 4 weeks; 30 μg/kg/d (estradiol 2 μg/kg/d); FIG. 1
Excerpt: as §1, with “euthanized. Uterus fresh weight was measured as an indicator of classical ERα-mediated estrogen action.” for “euthanized.”

[6] = ovx (estradiol-deficient) SHR, 30 μg/kg/d sc for 4 weeks

Structure (SMILES) | affinity to human ERβ compared to ERα (human ERβ) | cardiac index [1, 6] | cardiac output [1, 6] | left-ventricular stroke volume ([1]; ovx (estradiol-deficient) SHR, 30 μg/kg/d sc for 4 weeks, FIG. 5) | blood pressure ([1]; 30 μg/kg/d sc for 4 weeks) | effectiveness in lowering blood pressure relative to estradiol and the ERα agonist [1] | effect on ovx-induced adipose phenotype (body weight) [2] | cardiac hypertrophy (heart weight) [3] | binding affinity to rat prostate estrogen receptor compared to rat uterus estrogen receptor [4] | stimulation of uterine growth (uterine weight) [5]
C=C[C@@]12CCc3cc(O)ccc3[C@H]1CC[C@@]1(C)[C@H]2CC[C@@H]1O [8β-Vinyl-estra-1,3,5(10)-trien-3,17β-diol] | higher affinity to human ERβ compared to ERα | augmented | significant improvement of cardiac output; also recorded: increase cardiac output; also recorded: augmented | augmented | significant reduction of systolic as well as diastolic blood pressure; also recorded: lower systolic, mean and diastolic blood pressure; also recorded: lowered blood pressure levels | more effective | nor affect the ovx-induced adipose phenotype | significantly inhibited; also recorded: prevent the development of cardiac hypertrophy; also recorded: inhibitory effect on cardiac hyperthrophy as indicated by a reduction in heart weight | higher binding affinity to the rat prostate compared to rat uterus estrogen receptor | did neither cause stimulation of uterine growth
C=C[C@]12CC[C@]3(C)[C@@H](F)[C@H](O)C[C@H]3[C@@H]1CCc1cc(O)ccc12 [17β-Fluor-9α-vinyl-estra-1,3,5(10)-trien-3,16α-diol] | higher affinity to human ERβ compared to ERα | – | significant improvement of cardiac output; also recorded: increase cardiac output | – | significant reduction of systolic as well as diastolic blood pressure; also recorded: lower systolic, mean and diastolic blood pressure | more effective | – | significantly inhibited; also recorded: prevent the development of cardiac hypertrophy | higher binding affinity to the rat prostate compared to rat uterus estrogen receptor | –
